This is an account of results in EP3723745B1, “PHENOXY ACIDS FOR THE TREATMENT OF NEUROMUSCULAR DISORDERS” (NMD Pharma A/S, priority 2017, dated 2019).

One test has as its target T1, CIC-1 channels (Rattus norvegicus, UniProt P35524).
T1 construct: from tissue; host or cells: intact soleus muscle of 12-14-week old Wistar rats
T1 sequence (P35524 1-994): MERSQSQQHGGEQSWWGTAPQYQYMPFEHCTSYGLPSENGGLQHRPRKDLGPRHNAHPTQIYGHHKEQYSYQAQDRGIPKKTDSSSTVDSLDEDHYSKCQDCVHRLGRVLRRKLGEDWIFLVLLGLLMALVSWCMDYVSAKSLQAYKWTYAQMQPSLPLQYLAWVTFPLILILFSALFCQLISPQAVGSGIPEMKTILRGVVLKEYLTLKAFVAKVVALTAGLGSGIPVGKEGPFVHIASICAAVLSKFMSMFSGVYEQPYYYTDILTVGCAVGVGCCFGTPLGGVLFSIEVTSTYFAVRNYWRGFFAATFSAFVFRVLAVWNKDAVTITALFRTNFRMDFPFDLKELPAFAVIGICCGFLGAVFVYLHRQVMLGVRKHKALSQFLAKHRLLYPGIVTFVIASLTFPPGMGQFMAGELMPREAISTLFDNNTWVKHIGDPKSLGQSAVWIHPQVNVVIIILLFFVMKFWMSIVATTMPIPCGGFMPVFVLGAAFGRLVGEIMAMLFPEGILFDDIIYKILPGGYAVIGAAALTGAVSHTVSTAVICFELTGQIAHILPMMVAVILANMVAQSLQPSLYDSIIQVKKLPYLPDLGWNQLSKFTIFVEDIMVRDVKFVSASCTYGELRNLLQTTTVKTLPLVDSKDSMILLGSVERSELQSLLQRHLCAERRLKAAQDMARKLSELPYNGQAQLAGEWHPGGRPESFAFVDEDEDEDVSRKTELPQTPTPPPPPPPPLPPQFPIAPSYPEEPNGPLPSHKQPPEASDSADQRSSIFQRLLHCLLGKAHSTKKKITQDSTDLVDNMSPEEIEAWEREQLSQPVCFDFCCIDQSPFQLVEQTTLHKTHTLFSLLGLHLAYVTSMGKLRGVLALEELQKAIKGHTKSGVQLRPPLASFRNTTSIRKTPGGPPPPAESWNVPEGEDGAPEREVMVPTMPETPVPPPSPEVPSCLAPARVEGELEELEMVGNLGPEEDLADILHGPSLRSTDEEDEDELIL
In words: Electrophysiological measurement of compound inhibition of CIC-1 in rat muscle (Gm, three micro-electrodes technique). The class given is cell-based. The conditions noted are these: reduction of Gm in fibres of whole rat soleus muscles, approx. 30°C; n = number of experiments. An excerpt: Table 2: Inhibition of CIC-1 ion channel using compounds of the invention

In another test the test system is soleus muscles. Briefly: Measurement of force in an in vitro model: isolated rat nerve-muscle preparation with tubocurarine. The settings on record: Rattus norvegicus, 40 min; percentage of initial force restored after 40 mins with 50 µM test compound; tubocurarine (115 nM) for 90 mins; read-out: Point increase. As to the method:
Recovery of force is quantified as the percentage of the force prior to tubocurarine that is recovered by the compound.
The current invention relates to compounds that inhibit CIC-1 ion channels and increase muscle excitability and thereby improve muscle function in clinical conditions where muscle activation is failing. Such conditions result in loss of contractile function of skeletal muscle, weakness and excessive fatigue. In this series of experiments the compounds were tested for their ability to restore contractile function of isolated rat muscle when the neuromuscular transmission had been compromised akin to neuromuscular disorders.
Experimentally, soleus muscles from 4-5 wk old rats were isolated with the motor nerve remaining attached. The nerve-muscle preparations were mounted in experimental setups that enabled electrical stimulation of the motor nerve. Stimulation of the motor nerve led to activation of the muscle fibres and ensuing force production that was recorded.
After mounting the nerve-muscle preparation in the experimental setup, the contractile function of the muscle was initially assessed under the control conditions (Figure 2A). […] The experimental condition mimics the failing neuromuscular transmission in a range of neuromuscular disorders. After addition of tubocurarine the contractile force declined over the next 90 mins to 10-50 % of the control force. 50 µM of the test compound was then added and the contractile force recovered despite the continued presence of tubocurarine. To quantify the ability of the compound to restore force the percentage of the initial force that was restored was determined after 40 mins of compound exposure (Figure 2B) and the point increase is reported in Table 3. Table 3: Percentage increase of initial force that was restored using compounds of the invention

The test system of the next test is female Lewis rats. In words: Measurement of in situ muscle contractile characteristics (isometric hindlimb force, cisatracurium block). The class given is in vivo, rat. The settings on record: for average increase in twitch peaks: 12 Hz; for average increase in twitch peaks / average increase in tetanic force: cisatracurium infusion; for average increase in tetanic force: 80 Hz; for restore force to muscles in vivo: muscles partially inhibited by a neuromuscular blocker, summary in words. As to the method: Isometric hindlimb force was measured in 12-week old female Lewis rats in the presence and absence of compound.
Rats were placed under anesthesia with isoflurane (2-4%), intubated and subsequently connected to a micro ventilator (Microvent 1, Hallowell EMC, US). Two stimulation electrodes were inserted through the skin to stimulate the sciatic nerve. A small incision was made proximal to the ankle, to expose the Achilles tendon, which was tied by cotton string, and connected to a force transducer (Fort250, World Precision Instruments) with adjustable position (Vernier control). The Achilles tendon was then cut distal to the attached cotton string. The rat was placed on a heated pad, and to prevent movement artefacts from contraction of the ankle dorsiflexors, the foot was fixated by tape on a footplate.
Muscle contractile properties were assessed by applying an electrical current (under supramaximal voltage conditions) to the nerve and recording the force generated by the muscle. The muscle was stretched until maximal force was obtained, when assessed by 2 Hz stimulation. Isometric force was measured every 30 seconds at 12 Hz (Twitch), 10 pulses, and at every 5 minutes at 80 Hz (Tetanic) for 1 second (80 pulses). This stimulation pattern was employed throughout the experiment, expect in few cases where 80 Hz stimulation was replaced by 12 Hz (10 pulses). […] When the level of neuromuscular inhibition was stable, the test article was injected i.v. at the chosen concentration. The effect of test article was assessed on its ability to increase force generated from the stimulation pattern applied. The effect was assessed in the ability to increase force per se (tetanic, 80 Hz, stimulation), and the ratio between individual twitch peaks (12 Hz stimulation). The effect was monitored for at least 1 hour after injection of test article. In addition, the time from injection of test article to maximal effect on force (both twitch and tetanic) was noted and the time for the effect to disappear (return to baseline), if possible. When appropriate the infusion of neuromuscular blocking agent was ceased, with the stimulation pattern continued, and the return of force to control levels was monitored. Animals were sacrificed by cervical dislocation while still fully sedated.

In the next test the target is T2, human CIC-1 channels (Homo sapiens, UniProt P35523).
T2 construct: host or cells: CHO cells constitutively expressing human ClC-1
T2 sequence (P35523 whole entry): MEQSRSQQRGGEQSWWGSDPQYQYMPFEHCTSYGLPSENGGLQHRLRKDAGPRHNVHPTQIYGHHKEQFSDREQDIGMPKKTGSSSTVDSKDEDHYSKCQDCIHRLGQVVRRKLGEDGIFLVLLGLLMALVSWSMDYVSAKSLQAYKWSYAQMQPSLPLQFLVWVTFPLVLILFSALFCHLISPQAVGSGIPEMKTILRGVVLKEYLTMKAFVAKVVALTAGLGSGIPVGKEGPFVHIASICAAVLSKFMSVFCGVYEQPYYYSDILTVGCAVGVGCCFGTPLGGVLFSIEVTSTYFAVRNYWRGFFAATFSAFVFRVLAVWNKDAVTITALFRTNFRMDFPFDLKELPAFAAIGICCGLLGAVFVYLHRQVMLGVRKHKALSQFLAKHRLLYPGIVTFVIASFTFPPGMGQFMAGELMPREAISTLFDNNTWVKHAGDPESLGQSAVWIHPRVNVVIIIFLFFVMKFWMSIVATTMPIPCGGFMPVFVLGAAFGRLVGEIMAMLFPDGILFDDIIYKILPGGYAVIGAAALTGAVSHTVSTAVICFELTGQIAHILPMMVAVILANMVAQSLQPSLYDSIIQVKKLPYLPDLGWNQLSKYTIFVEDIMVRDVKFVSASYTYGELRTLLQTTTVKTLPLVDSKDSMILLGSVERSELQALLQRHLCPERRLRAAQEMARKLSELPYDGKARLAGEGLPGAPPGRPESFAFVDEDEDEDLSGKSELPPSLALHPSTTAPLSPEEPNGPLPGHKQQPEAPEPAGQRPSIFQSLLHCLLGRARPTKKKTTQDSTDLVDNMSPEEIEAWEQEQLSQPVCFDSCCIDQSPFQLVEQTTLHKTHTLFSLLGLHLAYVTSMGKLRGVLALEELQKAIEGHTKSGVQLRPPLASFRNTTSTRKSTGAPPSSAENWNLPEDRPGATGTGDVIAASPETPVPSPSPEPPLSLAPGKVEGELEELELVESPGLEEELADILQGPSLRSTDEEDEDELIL
In words: Automated patch-clamp on human CIC-1 expressed in CHO cells. The class given is cell-based. The settings on record: difference in half activation voltage, compound added intracellularly vs control cell patches; positive shift = CIC-1 inhibition. As to the method:
The investigatory goal of these experiments was to evaluate how compounds affect the open probability and current amplitude of human CIC-1 channels expressed in CHO cells. Experiments were performed using an automated patch clamp system that allowed high throughput testing of whole cell patches together with both intracellular and extracellular addition of compound.
Automated whole cell patch clamp experiments were performed with the Qpatch 16 system (Sophion Bioscience, Ballerup, Denmark) at room temperature. Data acquisition and analysis were performed in the Qassay software (ver. 5.6, Odense).
To evoke CIC-1 currents in whole cell patches, the membrane potential was initially stepped from a holding potential of -30 mV to +60 mV for 100 ms and then to various test voltages (sweeps) ranging from +120 mV to -140 mV in steps of 20 mV for 300 ms. To obtain tail currents, the membrane potential was stepped to -100 mV after each test voltage for 300 ms and then relaxed to -30 mV for 2 sec between sweeps (Figure 3). I/V relationships for whole cell instant and steady state current amplitudes were obtained by plotting average current densities at the beginning and at the end of the 300 ms step against the membrane potential (Figure 4).
In order to determine the relative overall open probability (P0), the instantaneous tail currents were normalized to the maximal tail current obtained following the most positive voltage step and plotted against the test voltage. Plots of normalized tail currents from each whole cell patch were then fitted to a Boltzmann function allowing determination of half activation voltages (V1/2, Figure 5).
For automated patch clamp experiments extracellular solutions contained: 2 mM CaCl2, 1 mM MgCl2, 10 mM HEPES, 4 mM KCI, 145 mM NaCl, 10 mM Glucose, pH adjusted to 7.4 with NaOH (2 M). Osmolality adjusted to -320 using sucrose.
Intracellular solutions contained: 80 mM CsF, 60 mM CsCI, 5/1 mM KOH/EGTA, 10 mM HEPES, 10 mM NaCl, pH adjusted to 7.2 with NaOH (2 M). Osmolality adjusted to -320 mOsm using sucrose.
Cells used in patch clamp experiments were Chinese hamster ovary cells (CHO) constitutively expressing human CIC-1 channels. The amino acid sequence encoded by the cDNA used to create this cell line was identical to the translated sequence for GenBank accession number NM_000083.2. Cells were produced by Charles River (Catalogue CT6175, Cleveland OH, USA) in a cryopreserved format. Experiments were performed on the cells directly after thawing (3 × 10^6 cells used in each experiment).
To evaluate the compound effect on CIC-1, when applied directly to the intracellular side of the cell membrane, the half activation voltage, V1/2, was determined from whole cell patches with compound added to the intracellular solution and then compared to V1/2 determined from control cell patches with only vehicle added to the intracellular solution. Additionally, the effect of extracellular added compound was evaluated by determine V1/2 and steady state current amplitudes before and after exchanging the extracellular solution to contain compound.
The difference in half activation voltage of CIC-1 channels, ΔV1/2, was determined as the difference between the cell patches treated intracellularly with compound and control cells patches and is reported in Table 4 below. A positive shift in ΔV1/2 is reflecting CIC-1 channel inhibition by the tested compound. P-values of <0.05 is considered significant. […]
(In general: Patch clamp records ionic current or voltage across a cell membrane.)

On CIC-1 channels, `C[C@H](Oc1ccc(Br)cc1F)C(=O)O` [Compound A-31, (2S)-2-(4-bromo-2-fluorophenoxy)propanoi c acid] displayed an EC50 of 7.2 ± 2.8 µM. For the same compound, the activation at 50 µM in the test on soleus muscles worked out at 42%. In the test on female Lewis rats (20 mg/kg i.v.), the “average increase in twitch peaks” value amounted to 7.3% and the “average increase in tetanic force” value was 29.8%. Further, the “restore force to muscles in vivo” value with female Lewis rats is recorded as “can restore force”.

The compound `COC[C@H](Oc1ccc(Br)cc1Br)C(=O)O` [Compound A-74, (2S)-2-(2,4-dibromophenoxy)-3-methoxypropanoic acid] had an EC50 at CIC-1 channels of 4 ± 0.1 µM. The activation at 50 µM with soleus muscles is 42%. In addition, the ΔV1/2 on human CIC-1 channels turned out to be 10.4 mV.

Regarding `O=C(O)[C@H](CCF)Oc1ccc(Br)cc1F` [Compound A-85, (2S)-2-(4-bromo-2-fluorophenoxy)-4-fluorobutanoic acid], the response at CIC-1 channels was half-maximal at 10 ± 9.5 µM (EC50). The activation at 50 µM in the test with soleus muscles turned out to be 37%. Besides, at human CIC-1 channels, the ΔV1/2 worked out at 12.5 mV.

Regarding `O=C(O)[C@@H](Oc1ccc(Br)cc1F)C1CC1` [Compound A-89, (2S)-2-(4-bromo-2-fluorophenoxy)-2-cyclopropylacetic acid], the EC50 on CIC-1 channels stood at 8.7 ± 1.4 µM. In addition, in the test with soleus muscles, the activation at 50 µM came out at 33%. Moreover, the ΔV1/2 on human CIC-1 channels is on record as 10.3 mV.

Take `C[C@@H](F)[C@H](Oc1ccc(Br)cc1)C(=O)O` [Compound A-94, (2R,3R)-2-(4-bromophenoxy)-3-fluorobutanoic acid]: at CIC-1 channels, the EC50 was 12 ± 3.2 µM. In the test with soleus muscles, the activation at 50 µM came out at 31%. Also, in the test with female Lewis rats (21 mg/kg i.v.), the “average increase in twitch peaks” value worked out at 11.5% and the “average increase in tetanic force” value amounted to 34.8%. Also, the “restore force to muscles in vivo” value with female Lewis rats is on record as “can restore force”.

At CIC-1 channels, `C[C@@H](F)[C@H](Oc1ccc(Br)cc1F)C(=O)O` [Compound A-95, (2R,3R)-2-(4-bromo-2-fluorophenoxy)-3-fluorobutanoic acid] showed an EC50 of 12.5 ± 1.4 µM. For the same compound, the activation at 50 µM in the test on soleus muscles turned out to be 39%. Moreover, the ΔV1/2 at human CIC-1 channels was found to be 10.3 mV.

As usually defined, the EC50 is the concentration that produces a half-maximal response. Higher therefore signals a less potent agent.
